Where “and” joins values, the source holds several entries; their conditions need not be identical. Identical values can stand only once. Inconclusive results and toxic doses are left out.

Our source for the T/C values is PubChem BioAssay AID330 (DTP/NCI, 2004).

For this experiment, the system named is P388 leukemia ip, CD2F1 mice, survival T/C. Briefly: NCI In Vivo Anticancer Drug Screen. Data for tumor model P388 Leukemia (intraperitoneal) in CD2F1 (CDF1) mice. The following applies: endpoint: median survival time, higher = longer survival. The method, boiled down:
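Mice carrying the transplanted tumor received test compound or vehicle. Survival was recorded in each group, and the value is the treated-group measurement divided by that of the vehicle-treated control group.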

[1] abbreviates: dose: 50.0 mg/kg/injection, schedule: Q01DX005 (ip), vehicle: Klucel (hydroxypropylcellulose) (HPC).
Setting [2] is: dose: 100.0 mg/kg/injection, schedule: Q01DX005 (ip), vehicle: Klucel (hydroxypropylcellulose) (HPC).
Where [3] appears, read: dose: 200.0 mg/kg/injection, schedule: Q01DX005 (ip), vehicle: Klucel (hydroxypropylcellulose) (HPC).
[4] abbreviates: dose: 25.0 mg/kg/injection, schedule: Q01DX009 (ip), vehicle: saline with Tween-80.
[5] abbreviates: dose: 50.0 mg/kg/injection, schedule: Q01DX009 (ip), vehicle: saline with Tween-80.
[6] abbreviates: dose: 100.0 mg/kg/injection, schedule: Q01DX009 (ip), vehicle: saline with Tween-80.
Where [7] appears, read: dose: 200.0 mg/kg/injection, schedule: Q01DX009 (ip), vehicle: saline with Tween-80.
The mark [8] stands for this setting: dose: 400.0 mg/kg/injection, schedule: Q01DX009 (ip), vehicle: saline with Tween-80.
[9] abbreviates: dose: 50.0 mg/kg/injection, schedule: Q01DX005 (ip), vehicle: saline with Tween-80.
Where [10] appears, read: dose: 100.0 mg/kg/injection, schedule: Q01DX005 (ip), vehicle: saline with Tween-80.
[11] abbreviates: dose: 200.0 mg/kg/injection, schedule: Q01DX005 (ip), vehicle: saline with Tween-80.
Setting [12] is: dose: 50.0 mg/kg/injection, schedule: Q01DX005 (ip), vehicle: saline.
Setting [13] is: dose: 100.0 mg/kg/injection, schedule: Q01DX005 (ip), vehicle: saline.
Setting [14] is: dose: 200.0 mg/kg/injection, schedule: Q01DX005 (ip), vehicle: saline.

Consider `Clc1ccc2c(NCCC3CCCN4CCCCC34)ccnc2c1` (stereo unspecified), for which the T/C runs as follows: (dose: 12.5 mg/kg/injection, schedule: Q01DX005 (ip), vehicle: Klucel (hydroxypropylcellulose) (HPC)) 100 % of control; (dose: 25.0 mg/kg/injection, schedule: Q01DX005 (ip), vehicle: Klucel (hydroxypropylcellulose) (HPC)) 103 % of control; under setting [1], 100 % of control and 97 % of control.
As for `O=C1CN2CCN3CC(=O)NC(=O)[C@H]3[C@@H]2C(=O)N1`, the T/C by setting is: (dose: 60.0 mg/kg/injection, schedule: Q01DX005 (ip), vehicle: saline with Tween-80) 96 % of control; (dose: 120.0 mg/kg/injection, schedule: Q01DX005 (ip), vehicle: saline with Tween-80) 96 % of control; (dose: 240.0 mg/kg/injection, schedule: Q01DX005 (ip), vehicle: saline with Tween-80) 98 % of control.
Consider `C[Si](C)(C)CC[Si]12OCCN(CCO1)CCO2`, for which the T/C runs as follows: under setting [1], 106 % of control; under setting [2], 104 % of control; under setting [3], 92 % of control.
Regarding `C[N+](C)(C[Si](C)(C)C)C1CCCCCCCCCCC1`, the T/C (dose: 15.0 mg/kg/injection, schedule: Q01DX005 (ip), vehicle: saline with Tween-80) was 102 % of control.
For `O=C(O)c1cccc(-c2c3ccc(=O)cc-3oc3cc(O)ccc23)c1`, the T/C by setting is: (dose: 60.0 mg/kg/injection, schedule: Q01DX005 (ip), vehicle: Klucel (hydroxypropylcellulose) (HPC)) 104 % of control; (dose: 120.0 mg/kg/injection, schedule: Q01DX005 (ip), vehicle: Klucel (hydroxypropylcellulose) (HPC)) 113 % of control; (dose: 240.0 mg/kg/injection, schedule: Q01DX005 (ip), vehicle: Klucel (hydroxypropylcellulose) (HPC)) 110 % of control.
Turning to `COc1ccc(Br)cc1/C=C/[N+](=O)[O-]`, the T/C is 113 % of control (dose: 12.5 mg/kg/injection, schedule: Q01DX009 (ip), vehicle: saline with Tween-80) and 122 % of control under setting [4].
Consider `Nc1cc(O)c(O)c2c1C(=O)c1c(O)c(O)cc(N)c1C2=O`, for which the T/C was 102 % of control under setting [1], 105 % of control under setting [2] and 99 % of control under setting [3].
With `Cc1oc(NCc2ccccc2)c(C#N)c1C`, the T/C is, setting by setting: (dose: 50.0 mg/kg/injection, schedule: Q01DX009 (ip), vehicle: saline + alcohol) 105 % of control; (dose: 100.0 mg/kg/injection, schedule: Q01DX009 (ip), vehicle: saline + alcohol) 90 % of control; (dose: 200.0 mg/kg/injection, schedule: Q01DX009 (ip), vehicle: saline + alcohol) 91 % of control.
Take `CCOC(=O)C(C)(OCC)OCC`: the T/C reads like this: under setting [4], 101 % of control; under setting [5], 98 % of control; under setting [6], 98 % of control; under setting [7], 98 % of control; under setting [8], 100 % of control.
Consider `CC[n+]1c([S-])nn(C)c1-c1cnccn1`, for which the T/C was 106 % of control under setting [9], 108 % of control under setting [10] and 102 % of control under setting [11].
With `C[N+](C)(C)c1ccc(Cc2ccc([N+](C)(C)C)cc2)cc1`, the T/C was 107 % of control (dose: 6.3 micrograms/kg/injection, schedule: Q04DX002 (ip), vehicle: saline); 111 % of control (dose: 12.5 micrograms/kg/injection, schedule: Q04DX002 (ip), vehicle: saline); 103 % of control (dose: 25.0 micrograms/kg/injection, schedule: Q04DX002 (ip), vehicle: saline).
With `CC1CN2COC(=S)SSSSC(=S)OCN3CC(C)N(COC(=S)SSSSC(=S)OCN1CC2C)CC3C` (stereo unspecified), the T/C by setting is: under setting [9], 99 % of control; under setting [10], 103 % of control; under setting [11], 106 % of control.
Take `COc1cc2ccnc(C=O)c2cc1OC`: the T/C was 110 % of control under setting [4], 110 % of control under setting [5] and 107 % of control under setting [6].
As to `O=S(=O)(O)CCCOC1COc2ccccc2OCCOCCOc2ccccc2OC1`, the T/C is, setting by setting: under setting [12], 99 % of control; under setting [13], 101 % of control; under setting [14], 98 % of control.
Regarding `COc1cc(C=Nc2cc(Br)cc(Br)c2)ccc1N(CCCl)CCCl`, the T/C is 120 % of control (dose: 0.44 mg/kg/injection, schedule: Q01DX009 (ip), vehicle: saline with Tween-80); 105 % of control (dose: 0.66 mg/kg/injection, schedule: Q01DX009 (ip), vehicle: saline with Tween-80); 170 % of control (dose: 1.5 mg/kg/injection, schedule: Q01DX009 (ip), vehicle: saline with Tween-80); 111 % of control (dose: 2.25 mg/kg/injection, schedule: Q04DX003 (ip), vehicle: other); 165 % of control (dose: 2.5 mg/kg/injection, schedule: Q01DX009 (ip), vehicle: saline with Tween-80); 170 % of control (dose: 5.0 mg/kg/injection, schedule: Q01DX009 (ip), vehicle: saline with Tween-80). The T/C was 165 % of control (dose: 9.0 mg/kg/injection, schedule: Q04DX003 (ip), vehicle: other); 110 % of control (dose: 10.0 mg/kg/injection, schedule: Q01DX009 (ip), vehicle: saline with Tween-80); 223 % of control (dose: 18.0 mg/kg/injection, schedule: Q04DX003 (ip), vehicle: other).
Take `O=C1NN(C(=O)c2ccccc2)C(c2ccccc2[N+](=O)[O-])c2c1c1ccccc1n2C(=O)c1ccccc1` (stereo unspecified): the T/C by setting is: under setting [1], 97 % of control; under setting [2], 95 % of control; under setting [3], 88 % of control.
For `C=CCSc1nc(N)nc2nc[nH]c12`, the T/C was 100 % of control under setting [5], 100 % of control under setting [6] and 90 % of control under setting [7].
As for `CCc1cc(-c2cc(CC)[nH]n2)n[nH]1`, the T/C is 100 % of control (dose: 60.0 mg/kg/injection, schedule: Q01DX005 (ip), vehicle: saline); 97 % of control (dose: 120.0 mg/kg/injection, schedule: Q01DX005 (ip), vehicle: saline); 95 % of control (dose: 240.0 mg/kg/injection, schedule: Q01DX005 (ip), vehicle: saline).
For the molecule `CC(=O)Nc1ccc(S(=O)(=O)n2c(=O)oc3cc(Cl)ccc32)cc1`, the T/C is 86 % of control under setting [1], 99 % of control under setting [2] and 86 % of control under setting [3].
For the molecule `CN(NC(=O)CCl)c1ccc([N+](=O)[O-])cc1[N+](=O)[O-]`, the T/C under setting [6] is 118 % of control, the T/C under setting [7] was 108 % of control and the T/C under setting [8] is 94 % of control.
With `O=C(CCN1CCCCC1)Nc1ccc(F)c(Cl)c1`, the T/C is 93 % of control under setting [9], 102 % of control under setting [10] and 93 % of control under setting [11].
`CCCCCCCCCCCCCCCCC[N+]1(CC)CCCCC1`: the T/C (dose: 0.39 mg/kg/injection, schedule: Q01DX009 (ip), vehicle: saline) was 111 % of control and the T/C (dose: 0.78 mg/kg/injection, schedule: Q01DX009 (ip), vehicle: saline) was 116 % of control.
Turning to `COc1cc(-c2cc(=O)c3c(O)cc(O)cc3o2)cc(OC)c1O`, the T/C reads like this: (dose: 5.0 mg/kg/injection, schedule: Q01DX009 (ip), vehicle: Klucel (hydroxypropylcellulose) (HPC)) 100 % of control; (dose: 10.0 mg/kg/injection, schedule: Q01DX009 (ip), vehicle: Klucel (hydroxypropylcellulose) (HPC)) 98 % of control; (dose: 20.0 mg/kg/injection, schedule: Q01DX009 (ip), vehicle: Klucel (hydroxypropylcellulose) (HPC)) 100 % of control; (dose: 40.0 mg/kg/injection, schedule: Q01DX009 (ip), vehicle: Klucel (hydroxypropylcellulose) (HPC)) 90 % of control.
Consider `O=C(COC1CCCCC1)OC1CCCCC1`, for which the T/C reads like this: (dose: 50.0 mg/kg/injection, schedule: Q04DX003 (ip), vehicle: saline with Tween-80) 100 % of control; (dose: 100.0 mg/kg/injection, schedule: Q04DX003 (ip), vehicle: saline with Tween-80) 100 % of control.
Take `Nc1cc2[nH]ccc2c(=O)[nH]1`: the T/C reads like this: under setting [12], 108 % of control; under setting [13], 113 % of control; under setting [14], 114 % of control.
On to `O=C1CC2C(CC3OC(=O)C4C3C23COC4(O)C(O)C3)c2occc21` (stereo unspecified), for which the T/C (dose: 100.0 mg/kg/injection, schedule: Q01DX001 (ip), vehicle: saline with Tween-80) was 104 % of control and the T/C (dose: 200.0 mg/kg/injection, schedule: Q01DX001 (ip), vehicle: saline with Tween-80) is 101 % of control.
